Literature values as cited in patent US8071623B2, “Amide substituted indazoles as poly(ADP-ribose)polymerase(PARP) inhibitors” (Instituto di Ricerche di Biologia Molecolare P. Angeletti …, priority 2007, dated 2011).

Test system: ischemia and reperfusion of the heart
Settings: rabbits

Structure (SMILES) | reductions in infarct size in the heart (single injection 10 mg/kg, one minute before occlusion or one minute before reperfusion) | reduced infarct size (single injection 1 mg/kg)
NC(=O)c1cccc(N)c1 [3-amino-benzamide] | 32-42% | 
Oc1cccc2c(O)nccc12 [1,5-dihydroxyisoquinoline] |  | 38-48%
